Experimental data published in ChEMBL document CHEMBL5360542, “Current development of β-carboline derived potential antimalarial scaffolds” (Eur J Med Chem, 2023).

Legend:
Type in all cases: functional, organism-based
Plasmodium falciparum [1] = experiment: Antiplasmodial activity against multi-resistant Plasmodium falciparum W2 infected in erythrocytes assessed as inhibition of parasite growth incubated for 48 hrs by flow cytometry; conditions: W2, Erythrocyte
Plasmodium falciparum [2] = experiment: Antimalarial activity against chloroquine-resistant Plasmodium falciparum FcB1 assessed as inhibition of parasite growth
Plasmodium falciparum [3] = experiment: Antimalarial activity against Plasmodium falciparum 3D7 infected in human A positive erythrocytes assessed as reduction in parasite growth incubated for 24 hrs by [3H]hypoxanthine based scintillation counting analysis; conditions: 3D7, Erythrocyte
Plasmodium falciparum [4] = experiment: Antimalarial activity against chloroquine-resistant Plasmodium falciparum K1 infected in human A positive erythrocytes assessed as reduction in parasite growth incubated for 24 hrs by [3H]hypoxanthine based scintillation counting analysis; conditions: K1, Erythrocyte
Plasmodium falciparum [5] = experiment: Antiplasmodial activity against chloroquine-resistant erythrocyte stage Plasmodium falciparum Dd2 assessed as inhibition of parasite growth incubated for 3 days by ELISA; conditions: 72 h
Plasmodium falciparum [6] = experiment: Antiplasmodial activity against chloroquine-sensitive erythrocyte stage Plasmodium falciparum 3D7 assessed as inhibition of parasite growth incubated for 3 days by ELISA; conditions: 3D7, Erythrocyte, 72 h
Plasmodium falciparum [7] = experiment: Antimalarial activity against chloroquine-resistant Plasmodium falciparum K1
Plasmodium falciparum [8] = experiment: Antimalarial activity against Plasmodium falciparum 3D7 infected in erythrocytes assessed as inhibition of parasite growth incubated for 48 hrs by SYBR-Green I fluorescence-based assay; conditions: 3D7, Erythrocyte
Plasmodium falciparum [9] = experiment: Antimalarial activity against Plasmodium falciparum INDO infected in erythrocytes assessed as inhibition of parasite growth incubated for 48 hrs by SYBR-Green I fluorescence-based assay; conditions: Erythrocyte
Plasmodium falciparum [10] = experiment: Antimalarial activity against chloroquine-resistant Plasmodium falciparum W2 transfected in human type A-positive RBC cells assessed reduction in parasite growth by measuring LDH activity incubated for 72 hrs by spectrophotometric analysis; conditions: Plasmodium falciparum, W2, Erythrocyte, 72 h
Plasmodium falciparum [11] = experiment: Antimalarial activity against chloroquine-sensitive Plasmodium falciparum D10 transfected in human type A-positive RBC cells assessed reduction in parasite growth by measuring LDH activity incubated for 72 hrs by spectrophotometric analysis; conditions: Plasmodium falciparum, D10, Erythrocyte, 72 h
Plasmodium falciparum [12] = experiment: Antimalarial activity against chloroquine-resistant Plasmodium falciparum K1 assessed as reduction in parasite growth incubated for 72 hrs by ELISA; conditions: K1, 72 h
Plasmodium falciparum [13] = experiment: Antimalarial activity against chloroquine-sensitive Plasmodium falciparum 3D7 assessed as reduction in parasite growth
Plasmodium falciparum [14] = experiment: Antimalarial activity against chloroquine-resistant Plasmodium falciparum K1 assessed as reduction in parasite growth

COc1ccc(C2NCCc3c2[nH]c2ccccc32)cc1 (configuration not stated) gave an IC50 (Plasmodium falciparum [1]) of 0.7 µM.
Work on COC(=O)c1cc2c([nH]c3ccccc32)c(C(=O)c2c[nH]c3ccccc23)n1 yielded an IC50 (Plasmodium falciparum [2]) of 23.3 µM.
Clc1ccc(C2NCCc3c2[nH]c2ccccc32)cc1 (configuration not stated) showed an IC50 (Plasmodium falciparum [1]) of 4.8 µM.
Compound CCN(CC)CCCNc1nccc2c1[nH]c1ccc(Cl)cc12 has an IC50 (Plasmodium falciparum [3]) of 0.15 µM.
For CCN(CC)CCCNc1nccc2c1[nH]c1ccc(F)cc12, the IC50 (Plasmodium falciparum [3]) was 0.6 µM and the IC50 (Plasmodium falciparum [4]) was 0.3 µM.
Work on O=C(O)c1cc2c([nH]c3ccccc32)c(-c2c[nH]c3ccccc23)n1 yielded an IC50 (Plasmodium falciparum [2]) greater than 31 µM.
Brc1ccc(C2NCCc3c2[nH]c2ccccc32)cc1 (configuration not stated) showed an IC50 (Plasmodium falciparum [1]) of 6.9 µM.
Clc1ccc2[nH]c3c(N4CCC(N5CCCC5)CC4)nccc3c2c1 was tested, and the IC50 (Plasmodium falciparum [3]) was 0.93 µM and the IC50 (Plasmodium falciparum [4]) was 1.03 µM.
In the case of Clc1ccc2[nH]c3c(N4CCC(N5CCCCC5)CC4)nccc3c2c1, the IC50 (Plasmodium falciparum [3]) is reported as 10.2 µM and the IC50 (Plasmodium falciparum [4]) is reported as 2.66 µM.
For CN(C)c1ccc(C2NCCc3c2[nH]c2ccccc32)cc1 (configuration not stated), the IC50 (Plasmodium falciparum [1]) was 3.9 µM.
O=[N+]([O-])c1ccc(C2NCCc3c2[nH]c2ccccc32)cc1 (configuration not stated) showed an IC50 (Plasmodium falciparum [1]) of 1.7 µM.
With CCN(CC)C1CCN(c2nccc3c2[nH]c2ccc(Cl)cc23)CC1 the IC50 (Plasmodium falciparum [3]) was 1.6 µM and the IC50 (Plasmodium falciparum [4]) was 1.18 µM.
With Fc1ccc(C2NCCc3c2[nH]c2ccccc32)cc1 (configuration not stated) the IC50 (Plasmodium falciparum [1]) was 1.1 µM.
COc1ccc(/C=C/C(=O)NCCn2c3cc(OC)ccc3c3ccnc(C)c32)cc1 showed an IC50 (Plasmodium falciparum [5]) of 0.49 µM and an IC50 (Plasmodium falciparum [6]) of 0.26 µM.
COc1ccc2[nH]cc(C(=O)c3nccc4c3[nH]c3ccc(OC)cc34)c2c1 gave an IC50 (Plasmodium falciparum [2]) of 1 µM.
C/C=C/C(=O)N1CCc2c(n(C(=O)OC(C)(C)C)c3ccccc23)C1CC(=O)OCC (configuration not stated) gave an IC50 (Plasmodium falciparum [7]) of 15 µM.
For CCOC(=O)c1cc2c([nH]c3ccccc32)c(-c2ccc(/N=C(/Nc3ccccc3)NC3CC3)cc2)n1, the IC50 (Plasmodium falciparum [8]) was 1 µM and the IC50 (Plasmodium falciparum [9]) was 0.6 µM.
CC(C)(C)CCNC(=O)C1Cc2c([nH]c3ccccc23)C(c2ccc(Cl)cc2)N1 (configuration not stated) gave an IC50 (Plasmodium falciparum [10]) of 7.8 µM and an IC50 (Plasmodium falciparum [11]) of 10.5 µM.
For CC(C)(C)OC(=O)n1cc(CC2NCCc3c2[nH]c2ccccc32)c2ccccc21 (configuration not stated), the IC50 (Plasmodium falciparum [2]) was 8.5 µM.
C/C=C/C(=O)N1CCc2c([nH]c3ccccc23)C1CC(=O)OCC (configuration not stated) showed an IC50 (Plasmodium falciparum [12]) of 13.8 µM.
With CCOC(=O)c1cc2c([nH]c3ccccc32)c(-c2ccc(N)cc2)n1 the IC50 (Plasmodium falciparum [8]) was 37.7 µM and the IC50 (Plasmodium falciparum [9]) was 39 µM.
In the case of CCOC(=O)c1cc2c([nH]c3ccccc32)c(-c2ccc(NC(=S)Nc3ccccc3)cc2)n1, the IC50 (Plasmodium falciparum [8]) is reported as 6.4 µM and the IC50 (Plasmodium falciparum [9]) is reported as 0.64 µM.
C=C(C)CC1OC(C)=Cn2c3ccccc3c3cc(C(=O)OC)nc1c32 (configuration not stated) gave an IC50 (Plasmodium falciparum [13]) greater than 5 µM.
In the case of C=CCC1OC(C)=Cn2c3ccccc3c3cc(C(=O)OC)nc1c32 (configuration not stated), the IC50 (Plasmodium falciparum [13]) is reported as greater than 5 µM and the IC50 (Plasmodium falciparum [14]) is reported as greater than 5 µM.
Work on CCN(CC)CCCC(C)Nc1nccc2c1[nH]c1ccc(F)cc12 (configuration not stated) yielded an IC50 (Plasmodium falciparum [3]) of 0.37 µM and an IC50 (Plasmodium falciparum [4]) of 1.2 µM.
COC(=O)c1cc2c3cc(Br)ccc3n3c2c(n1)COC(C)=C3 showed an IC50 (Plasmodium falciparum [13]) greater than 5 µM.
Compound C=C(CC1OC(C)=Cn2c3ccccc3c3cc(C(=O)OC)nc1c32)C(=O)OC (configuration not stated) has an IC50 (Plasmodium falciparum [13]) of 0.57 µM and an IC50 (Plasmodium falciparum [14]) of 0.72 µM.
In the case of Cc1nccc2c1[nH]c1cc(OCCNC(=O)/C=C/c3cccc(Br)c3)ccc12, the IC50 (Plasmodium falciparum [5]) is reported as 0.48 µM and the IC50 (Plasmodium falciparum [6]) is reported as 0.37 µM.
Work on CON(C)C(=O)CC1c2c(c3ccccc3n2C(=O)OC(C)(C)C)CCN1C(=O)OCc1ccccc1 (configuration not stated) yielded an IC50 (Plasmodium falciparum [7]) of 13.8 µM.
In the case of COc1ccc2c3ccnc(C)c3n(CCNC(=O)/C=C/c3ccc(F)cc3)c2c1, the IC50 (Plasmodium falciparum [5]) is reported as 0.33 µM and the IC50 (Plasmodium falciparum [6]) is reported as 0.09 µM.
Compound COC(=O)c1cc2c3ccccc3n3c2c(n1)C(C1C=CCCC1)OC(C)=C3 (configuration not stated) has an IC50 (Plasmodium falciparum [13]) of 1.64 µM and an IC50 (Plasmodium falciparum [14]) greater than 5 µM.
For COC(=O)c1cc2c3ccccc3n3c2c(n1)C(CC=C(C)C)OC(C)=C3 (configuration not stated), the IC50 (Plasmodium falciparum [13]) was greater than 5 µM and the IC50 (Plasmodium falciparum [14]) was greater than 5 µM.
With COc1ccc2c3ccnc(C)c3n(CCNC(=O)/C=C/c3cccc(F)c3)c2c1 the IC50 (Plasmodium falciparum [5]) was 0.78 µM and the IC50 (Plasmodium falciparum [6]) was 0.07 µM.
In the case of COc1ccc2c3ccnc(C)c3n(CCNC(=O)/C=C/c3cccc(Br)c3)c2c1, the IC50 (Plasmodium falciparum [5]) is reported as 0.41 µM and the IC50 (Plasmodium falciparum [6]) is reported as 0.07 µM.
Compound COC(=O)c1cc2c3cc(Cl)ccc3n3c2c(n1)C(C/C=C(\C)CCC=C(C)C)OC(C)=C3 (configuration not stated) has an IC50 (Plasmodium falciparum [13]) of 1.55 µM and an IC50 (Plasmodium falciparum [14]) greater than 5 µM.
For COc1ccc(/C=C/C(=O)NCCOc2ccc3c(c2)[nH]c2c(C)nccc23)cc1, the IC50 (Plasmodium falciparum [5]) was 1.09 µM and the IC50 (Plasmodium falciparum [6]) was 0.21 µM.
Cc1nccc2c1[nH]c1cc(OCCNC(=O)/C=C/c3cccc(F)c3)ccc12 was tested, and the IC50 (Plasmodium falciparum [5]) was 5.01 µM and the IC50 (Plasmodium falciparum [6]) was 2.75 µM.
CC1NC(C(=O)N2CCCCC2)Cc2c1[nH]c1ccccc21 (configuration not stated) gave an IC50 (Plasmodium falciparum [10]) of 9.6 µM and an IC50 (Plasmodium falciparum [11]) of 13.2 µM.
With CCCCCCCC[C@@H]1N[C@@H](C(=O)NCCC(C)(C)C)Cc2c1[nH]c1ccccc21 the IC50 (Plasmodium falciparum [10]) was 4 µM and the IC50 (Plasmodium falciparum [11]) was 4.45 µM.
